Values after ≈ are worked out from the molar mass of the structure shown.
How the values were obtained:
Assay type in all cases: functional
[1] = tested on: HL-60; experiment: Cytotoxicity against human HL60 cells after 72 hrs by MTT assay; settings: HL-60, 72 h, read-out: ED50 (the source's name)
[2] = tested on: P388; experiment: Cytotoxicity against mouse P388 cells after 72 hrs by MTT assay; settings: P388, 72 h, read-out: ED50 (the source's name)
[3] = tested on: HL-60; experiment: Potency index, ratio of ED50 for Ascidiacyclamide to ED50 test compound against human HL60 cells after 72 hrs by MTT assay
[4] = tested on: P388; experiment: Cytotoxicity against mouse P388 cells after 72 hrs by MTT assay relative to Ascidiacyclamide

Row | SMILES | EC50 [1] [µg/mL] | EC50 [2] [µg/mL] | Ratio ED50 [3] | Activity [4] [%]
1 | CC[C@H](C)[C@@H]1NC(=O)c2csc(n2)[C@@H](C(C)C)NC(=O)[C@@H]2CCCN2C(=O)[C@H]([C@@H](C)CC)NC(=O)c2csc(n2)[C@@H](C(C)C)NC(=O)[C@@H]2CCCN2C1=O | 10.4 (≈ 13.2 µM) | 19.4 (≈ 24.7 µM) | 3 | –
2 | CC[C@H](C)[C@@H]1NC(=O)c2csc(n2)[C@@H](C(C)C)NC(=O)[C@@H]2CCN2C(=O)[C@H]([C@@H](C)CC)NC(=O)c2csc(n2)[C@@H](C(C)C)NC(=O)[C@@H]2CCN2C1=O | > 100 | > 100 | – | –
3 | CC[C@H](C)[C@@H]1NC(=O)c2csc(n2)[C@@H](C(C)C)NC(=O)[C@@H]2C=CCN2C(=O)[C@H]([C@@H](C)CC)NC(=O)c2csc(n2)[C@@H](C(C)C)NC(=O)[C@@H]2C=CCN2C1=O | > 100 | > 100 | – | –
4 | CC[C@H](C)[C@@H]1NC(=O)c2csc(n2)[C@@H](C(C)C)NC(=O)[C@@H]2CCCCN2C(=O)[C@H]([C@@H](C)CC)NC(=O)c2csc(n2)[C@@H](C(C)C)NC(=O)[C@@H]2CCCCN2C1=O | 15 (≈ 18.4 µM) | 15.8 (≈ 19.4 µM) | 2 | 66
5 | CC[C@H](C)[C@@H]1NC(=O)c2csc(n2)[C@@H](C(C)C)NC(=O)[C@H]2N=C(O[C@@H]2C)[C@H]([C@@H](C)CC)NC(=O)c2csc(n2)[C@@H](C(C)C)NC(=O)[C@H]2N=C1O[C@@H]2C [ASCIDIACYCLAMIDE] | – | 10.5 (≈ 13.9 µM) | – | –
